Assay results as given in ChEMBL document CHEMBL2390860, “Chemical constituents from Nelumbo nucifera leaves and their anti-obesity effects” (Bioorg Med Chem Lett, 2013).
The source made the active and inactive calls. The calls are words filed in the database; no cut-off is given here.

Key:
[1] = tested on: 3T3-L1; assay: Antiobesity activity in mouse 3T3L1 cells assessed as reduction of fat accumulation at 100 uM by oil Red O staining-based ELISA; format: functional, cell-based
[2] = target: T1, Pancreatic triacylglycerol lipase (Sus scrofa) (UniProt P00591); assay: Inhibition of porcine pancreatic lipase using para-nitrophenyl butyrate as substrate at 100 uM by ELISA
T1 sequence (whole entry): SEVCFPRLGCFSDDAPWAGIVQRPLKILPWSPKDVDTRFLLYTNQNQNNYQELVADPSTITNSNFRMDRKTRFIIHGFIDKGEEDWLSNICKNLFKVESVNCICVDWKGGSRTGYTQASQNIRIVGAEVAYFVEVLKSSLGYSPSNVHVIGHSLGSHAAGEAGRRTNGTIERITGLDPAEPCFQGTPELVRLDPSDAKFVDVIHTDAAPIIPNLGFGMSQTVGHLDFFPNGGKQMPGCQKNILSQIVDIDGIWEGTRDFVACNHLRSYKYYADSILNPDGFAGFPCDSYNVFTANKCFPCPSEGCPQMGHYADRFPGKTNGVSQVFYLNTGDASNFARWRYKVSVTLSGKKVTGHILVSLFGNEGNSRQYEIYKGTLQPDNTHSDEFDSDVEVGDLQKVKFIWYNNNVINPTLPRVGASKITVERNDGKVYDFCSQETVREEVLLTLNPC

| SMILES | Activity [1] | Lipase inhibition (active/not active) [2] |
| --- | --- | --- |
| CC(=O)/C=C/[C@]12O[C@@]1(C)C[C@@H](O)CC2(C)C | Active | inactive |
| COc1cc2c3c(c1OC)C1(C=CC(=O)C=C1)C[C@H]3N(C)CC2 | – | Active |
| O=c1c(O[C@@H]2O[C@H](CO)[C@@H](O)[C@H](O)[C@H]2O)c(-c2ccc(O)c(O)c2)oc2cc(O)cc(O)c12 | Active | inactive |
| CC(=O)/C=C/[C@H]1[C@H](C)C[C@H](O)CC1(C)C | inactive | inactive |
| O=c1c(O[C@@H]2O[C@H](CO)[C@@H](O)[C@H](O)[C@H]2O)c(-c2ccc(O)cc2)oc2cc(O)cc(O)c12 | Active | inactive |
| CC(=O)/C=C/[C@@]12O[C@]1(C)C[C@@H](O[C@@H]1O[C@H](CO)[C@@H](O)[C@H](O)[C@H]1O)CC2(C)C | inactive | inactive |
| Oc1cc(O)c2c(c1)O[C@@H](c1ccc(O)c(O)c1)[C@H](O)C2 | – | Active |
| COc1cc(-c2oc3cc(O[C@@H]4O[C@H](CO)[C@@H](O)[C@H](O)[C@H]4O)cc(O)c3c(=O)c2O)ccc1O | Active | inactive |
| CC(=O)C=C=C1C(C)(C)C[C@H](O)C[C@]1(C)O | inactive | inactive |
| CC(=O)C=C=C1C(C)(C)C[C@H](O)C[C@@]1(C)O | inactive | inactive |
| O=c1c(O)c(-c2ccc(O)cc2)oc2cc(O)cc(O)c12 | Active | Active |
| CC1=CC(=O)CC(C)(C)/C1=C/C[C@H](C)O | inactive | inactive |
| Oc1ccc([C@H]2Oc3c(O)c(O)c(O)c(O)c3C[C@@H]2O)cc1O | – | Active |
| CC1=CC(=O)CC(C)(C)[C@@]1(O)/C=C/[C@@H](C)O | inactive | inactive |
| CC(=O)/C=C\[C@@H]1[C@@H](C)C[C@@H](O[C@@H]2O[C@H](CO)[C@@H](O)[C@H](O)[C@H]2O)CC1(C)C | inactive | inactive |
| COc1cc(/C=C\C(=O)NCCc2ccc(O)cc2)ccc1O | inactive | Active |

| SMILES | Activity [1] | Lipase inhibition (active/not active) [2] |
| --- | --- | --- |
| C[N+]1([O-])CCc2cc3c(c4c2[C@H]1Cc1ccccc1-4)OCO3 (some centres undefined) | Active | Active |
| O=C1c2ccccc2-c2c3c(cc4ccnc1c24)OCO3 | Active | Active |
| CC1=C2C[C@@H](C(C)(C)O[C@@H]3O[C@H](CO)[C@@H](O)[C@H](O)[C@H]3O)CC[C@@]2(C)CCC1=O | inactive | inactive |
| CC1(C)C[C@@H](O)C[C@@]2(C)OC(=O)C=C12 | inactive | inactive |
| O=C1c2c(O)cc(O)cc2O[C@@H](c2ccc(O)c(O)c2)[C@H]1O | Active | Active |
| O=C(/C=C\c1ccc(O)cc1)NCCc1ccc(O)cc1 | inactive | Active |
| CC(=O)/C=C/[C@@]12O[C@]1(C)C[C@@H](O)CC2(C)C | Active | inactive |
| CC(=O)/C=C/[C@H]1C(C)=C[C@H](O[C@@H]2O[C@H](CO)[C@@H](O)[C@H](O)[C@H]2O)CC1(C)C | inactive | inactive |
| O=C1c2c(O)cc(O)cc2O[C@H](c2ccc(O)c(O)c2)[C@H]1O | – | Active |
| CC(=O)/C=C/[C@@]1(O)C(C)=CC(=O)CC1(C)C | inactive | inactive |
| COc1cc(/C=C/C(=O)NCCc2ccc(O)cc2)ccc1O | inactive | Active |
| O=c1c(O)c(-c2ccc(O)c(O)c2)oc2cc(O)cc(O)c12 | Active | Active |
| O=C(/C=C/c1ccc(O)cc1)NCCc1ccc(O)cc1 | inactive | Active |
| O=c1cc(-c2ccc(O)c(O)c2)oc2cc(O)cc(O)c12 | Active | Active |
| O=C1CC[C@@H]2c3cc(O)c(O)cc3CCN12 | – | Active |
| CC(=O)/C=C/[C@]1(O)[C@@H](C)C[C@@H](O)CC1(C)C | inactive | inactive |
